PubChem BioAssay AID256 (DTP/NCI, 2004)
Values joined by “and” are separate entries in the source; they are usually repeats but may differ in a detail not shown here. Identical values can stand only once. Toxic doses and inconclusive results are not listed.

System: CD2F1 mice, L1210 leukemia ip, survival T/C
Assay: NCI In Vivo Anticancer Drug Screen. Data for tumor model L1210 Leukemia (intraperitoneal) in CD2F1 (CDF1) mice
Settings: higher = longer survival
Summary of the method: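 Mice carrying a transplanted tumor received test compound or vehicle alone. The value is the measurement in the treated group divided by that in the vehicle-treated control group.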

[1] = endpoint: mean survival time, dose: 25.0 mg/kg/injection, schedule: Q01DX009 (ip), vehicle: saline with Tween-80
[2] = endpoint: mean survival time, dose: 50.0 mg/kg/injection, schedule: Q01DX009 (ip), vehicle: saline with Tween-80
[3] = endpoint: mean survival time, dose: 100.0 mg/kg/injection, schedule: Q04DX003 (ip), vehicle: saline with Tween-80
[4] = endpoint: mean survival time, dose: 200.0 mg/kg/injection, schedule: Q04DX003 (ip), vehicle: saline with Tween-80
[5] = endpoint: mean survival time, dose: 400.0 mg/kg/injection, schedule: Q04DX003 (ip), vehicle: saline with Tween-80

For `OCC1OC(n2cnc3c(=S)nc[nH]c32)C(O)C1O` (stereo not drawn), the T/C (endpoint: mean survival time, dose: 75.0 mg/kg/injection, schedule: Q01DX005 (ip), vehicle: saline) was 104 % of control, the T/C (endpoint: mean survival time, dose: 75.0 mg/kg/injection, schedule: Q01DX009 (ip), vehicle: saline) was 107 % of control and the T/C (endpoint: mean survival time, dose: 75.0 mg/kg/injection, schedule: Q01DX009 (oral), vehicle: saline) was 97 % of control. For the same compound, the T/C (endpoint: mean survival time, dose: 100.0 mg/kg/injection, schedule: Q01DX005 (ip), vehicle: saline) was 122 % of control, the T/C (endpoint: mean survival time, dose: 100.0 mg/kg/injection, schedule: Q01DX007 (ip), vehicle: Klucel (hydroxypropylcellulose) (HPC)) was 115 % of control and the T/C (endpoint: mean survival time, dose: 100.0 mg/kg/injection, schedule: Q01DX007 (ip), vehicle: saline) was 152 % of control. The T/C (endpoint: mean survival time, dose: 100.0 mg/kg/injection, schedule: Q01DX009 (ip), vehicle: Klucel (hydroxypropylcellulose) (HPC)) was 118 % of control, the T/C (endpoint: mean survival time, dose: 100.0 mg/kg/injection, schedule: Q01DX009 (ip), vehicle: saline) was 154 % of control and the T/C (endpoint: mean survival time, dose: 100.0 mg/kg/injection, schedule: Q03DX003 (ip), vehicle: Klucel (hydroxypropylcellulose) (HPC)) was 95 % of control. The T/C (endpoint: mean survival time, dose: 100.0 mg/kg/injection, schedule: Q04DX003 (ip), vehicle: Klucel (hydroxypropylcellulose) (HPC)) was 102 % of control, the T/C (endpoint: mean survival time, dose: 100.0 mg/kg/injection, schedule: Q04DX003 (ip), vehicle: saline) was 113 % of control and the T/C (endpoint: mean survival time, dose: 112.0 mg/kg/injection, schedule: Q01DX010 (ip), vehicle: saline) was 110 % of control. The T/C (endpoint: mean survival time, dose: 150.0 mg/kg/injection, schedule: Q01DX005 (ip), vehicle: saline) was 107 % of control, the T/C (endpoint: mean survival time, dose: 150.0 mg/kg/injection, schedule: Q01DX009 (ip), vehicle: saline) was 116 % of control and the T/C (endpoint: mean survival time, dose: 150.0 mg/kg/injection, schedule: Q01DX009 (oral), vehicle: saline) was 98 % of control. The T/C (endpoint: mean survival time, dose: 200.0 mg/kg/injection, schedule: Q01DX007 (ip), vehicle: saline) was 157 % of control, the T/C (endpoint: mean survival time, dose: 200.0 mg/kg/injection, schedule: Q01DX009 (ip), vehicle: saline) was 179 % of control and the T/C (endpoint: mean survival time, dose: 200.0 mg/kg/injection, schedule: Q03DX003 (ip), vehicle: Klucel (hydroxypropylcellulose) (HPC)) was 102 % of control. For the same compound, the T/C (endpoint: mean survival time, dose: 200.0 mg/kg/injection, schedule: Q03DX003 (ip), vehicle: saline) was 150 % of control, the T/C (endpoint: mean survival time, dose: 200.0 mg/kg/injection, schedule: Q04DX003 (ip), vehicle: Klucel (hydroxypropylcellulose) (HPC)) was 100 % of control and the T/C (endpoint: mean survival time, dose: 200.0 mg/kg/injection, schedule: Q04DX003 (ip), vehicle: saline) was 150 % of control. For the same compound, the T/C (endpoint: mean survival time, dose: 240.0 mg/kg/injection, schedule: Q01DX005 (ip), vehicle: saline) was 164 % of control, the T/C (endpoint: mean survival time, dose: 300.0 mg/kg/injection, schedule: Q01DX002 (sc), vehicle: saline) was 109 % of control and the T/C (endpoint: mean survival time, dose: 300.0 mg/kg/injection, schedule: Q01DX009 (oral), vehicle: saline) was 105 % of control. For the same compound, the T/C (endpoint: mean survival time, dose: 300.0 mg/kg/injection, schedule: Q04DX003 (ip), vehicle: saline) was 108 % of control, the T/C (endpoint: mean survival time, dose: 400.0 mg/kg/injection, schedule: Q01DX007 (ip), vehicle: saline) was 104 % of control and the T/C (endpoint: mean survival time, dose: 400.0 mg/kg/injection, schedule: Q01DX009 (ip), vehicle: saline) was 116 % of control. The T/C (endpoint: mean survival time, dose: 400.0 mg/kg/injection, schedule: Q03DX003 (ip), vehicle: Klucel (hydroxypropylcellulose) (HPC)) was 111 % of control, the T/C (endpoint: mean survival time, dose: 400.0 mg/kg/injection, schedule: Q03DX003 (ip), vehicle: saline) was 154 % of control and the T/C (endpoint: mean survival time, dose: 400.0 mg/kg/injection, schedule: Q04DX003 (ip), vehicle: Klucel (hydroxypropylcellulose) (HPC)) was 111 % of control. The T/C (endpoint: mean survival time, dose: 400.0 mg/kg/injection, schedule: Q04DX003 (ip), vehicle: saline) was 175 % of control, the T/C (endpoint: mean survival time, dose: 480.0 mg/kg/injection, schedule: Q01DX005 (ip), vehicle: saline) was 156 % of control and the T/C (endpoint: mean survival time, dose: 600.0 mg/kg/injection, schedule: Q01DX001 (ip), vehicle: saline) was 97 % of control. The T/C (endpoint: mean survival time, dose: 600.0 mg/kg/injection, schedule: Q01DX002 (ip), vehicle: saline) was 104 % of control, the T/C (endpoint: mean survival time, dose: 600.0 mg/kg/injection, schedule: Q01DX002 (sc), vehicle: saline) was 116 % of control and the T/C (endpoint: mean survival time, dose: 600.0 mg/kg/injection, schedule: Q01DX009 (oral), vehicle: saline) was 97 % of control. For the same compound, the T/C (endpoint: mean survival time, dose: 600.0 mg/kg/injection, schedule: Q03HX008 (ip), vehicle: saline) was 119 % of control, the T/C (endpoint: mean survival time, dose: 600.0 mg/kg/injection, schedule: Q03HX016 (ip), vehicle: saline) was 121 % of control and the T/C (endpoint: mean survival time, dose: 600.0 mg/kg/injection, schedule: Q04DX003 (ip), vehicle: saline) was 114 % of control. For the same compound, the T/C (endpoint: mean survival time, dose: 600.0 mg/kg/injection, schedule: Q08DX002 (ip), vehicle: saline) was 104 % of control, the T/C (endpoint: mean survival time, dose: 900.0 mg/kg/injection, schedule: Q01DX002 (ip), vehicle: saline) was 118 % of control and the T/C (endpoint: mean survival time, dose: 1200.0 mg/kg/injection, schedule: Q01DX001 (ip), vehicle: saline) was 97 % of control. For the same compound, the T/C (endpoint: mean survival time, dose: 1200.0 mg/kg/injection, schedule: Q01DX002 (ip), vehicle: saline) was 116 % of control, the T/C (endpoint: mean survival time, dose: 1200.0 mg/kg/injection, schedule: Q01DX009 (ip), vehicle: saline) was 113 % of control and the T/C (endpoint: mean survival time, dose: 1200.0 mg/kg/injection, schedule: Q03HX016 (ip), vehicle: saline) was 154 % of control. For the same compound, the T/C (endpoint: mean survival time, dose: 1200.0 mg/kg/injection, schedule: Q03HX024 (ip), vehicle: saline) was 155 % of control and 158 % of control, the T/C (endpoint: mean survival time, dose: 1200.0 mg/kg/injection, schedule: Q08DX002 (ip), vehicle: saline) was 115 % of control and the T/C (endpoint: mean survival time, dose: 2400.0 mg/kg/injection, schedule: Q01DX001 (ip), vehicle: saline) was 98 % of control. For the same compound, the T/C (endpoint: mean survival time, dose: 2400.0 mg/kg/injection, schedule: Q03HX016 (ip), vehicle: saline) was 156 % of control, the T/C (endpoint: median survival time, dose: 40.0 mg/kg/injection, schedule: Q01DX009 (ip), vehicle: saline) was 114 % of control and 122 % of control and the T/C (endpoint: median survival time, dose: 160.0 mg/kg/injection, schedule: Q01DX009 (ip), vehicle: saline) was 155 % of control and 185 % of control. The T/C (endpoint: median survival time, dose: 320.0 mg/kg/injection, schedule: Q01DX009 (ip), vehicle: saline) was 185 % of control and the T/C (endpoint: median survival time, dose: 400.0 mg/kg/injection, schedule: Q01DX005 (ip), vehicle: water) was 150 % of control.

For `O=C1OCC/C1=C1/CCOC1`, the T/C [1] was 101 % of control and the T/C [2] was 101 % of control.

`Clc1ccc(COC(Cn2ccnc2)c2ccc(Cl)cc2Cl)c(Cl)c1` (stereo not drawn) was tested, and the T/C [3] was 91 % of control and the T/C [4] was 93 % of control.

`CC(C)OC(=O)N1C(=O)C2C3CCC(O3)C2C1=O` (stereo not drawn) was tested, and the T/C [1] was 105 % of control, the T/C (endpoint: mean survival time, dose: 25.0 mg/kg/injection, schedule: Q04DX002 (ip), vehicle: saline with Tween-80) was 101 % of control and the T/C [2] was 97 % of control. The T/C (endpoint: mean survival time, dose: 50.0 mg/kg/injection, schedule: Q04DX002 (ip), vehicle: saline with Tween-80) was 101 % of control, the T/C (endpoint: mean survival time, dose: 100.0 mg/kg/injection, schedule: Q01DX009 (ip), vehicle: saline with Tween-80) was 97 % of control and the T/C (endpoint: mean survival time, dose: 100.0 mg/kg/injection, schedule: Q04DX002 (ip), vehicle: saline with Tween-80) was 106 % of control. For the same compound, the T/C (endpoint: mean survival time, dose: 400.0 mg/kg/injection, schedule: Q04DX002 (ip), vehicle: saline with Tween-80) was 97 % of control.

For `CC(C)(C)c1ccc(OCCO)cc1`, the T/C (endpoint: mean survival time, dose: 100.0 mg/kg/injection, schedule: Q01DX009 (ip), vehicle: other) was 108 % of control and the T/C [3] was 100 % of control.

In the case of `COC1=C(N2CC2)C(=O)C(OC)=C(N2CC2)C1=O`, the T/C (endpoint: mean survival time, dose: 0.9 mg/kg/injection, schedule: Q01DX015 (ip), vehicle: saline) is reported as 115 % of control, the T/C (endpoint: mean survival time, dose: 1.3 mg/kg/injection, schedule: Q01DX015 (ip), vehicle: saline) is reported as 119 % of control and the T/C (endpoint: mean survival time, dose: 3.0 mg/kg/injection, schedule: Q01DX015 (ip), vehicle: saline) is reported as 113 % of control.

With `N#CC1=C(N)CCC1` the T/C (endpoint: mean survival time, dose: 6.25 mg/kg/injection, schedule: Q01DX009 (ip), vehicle: saline with Tween-80) was 97 % of control, the T/C (endpoint: mean survival time, dose: 12.5 mg/kg/injection, schedule: Q01DX009 (ip), vehicle: saline with Tween-80) was 95 % of control and the T/C [1] was 93 % of control. The T/C [3] was 102 % of control and the T/C [5] was 97 % of control.

With `O=C(C=P(c1ccccc1)(c1ccccc1)c1ccccc1)c1ccccc1` the T/C [3] was 97 % of control, the T/C [4] was 101 % of control and the T/C [5] was 89 % of control.

With `CCC(=O)OCC(=O)[C@]1(O)Cc2c(O)c3c(c(O)c2[C@@H](OC2CC(N)C(O)C(C)O2)C1)C(=O)c1c(OC)cccc1C3=O` (stereo partly drawn) the T/C (endpoint: mean survival time, dose: 0.25 mg/kg/injection, schedule: Q01DX009 (ip), vehicle: saline) was 112 % of control, the T/C (endpoint: mean survival time, dose: 0.5 mg/kg/injection, schedule: Q01DX009 (ip), vehicle: saline) was 122 % of control and the T/C (endpoint: mean survival time, dose: 1.5 mg/kg/injection, schedule: Q04DX003 (ip), vehicle: saline sonified) was 166 % of control. For the same compound, the T/C (endpoint: mean survival time, dose: 2.0 mg/kg/injection, schedule: Q01DX009 (ip), vehicle: saline) was 155 % of control, the T/C (endpoint: mean survival time, dose: 2.0 mg/kg/injection, schedule: Q04DX003 (ip), vehicle: saline with Tween-80) was 118 % of control and the T/C (endpoint: mean survival time, dose: 8.0 mg/kg/injection, schedule: Q01DX009 (ip), vehicle: saline) was 89 % of control.

`CCCSc1ccccc1` was tested, and the T/C (endpoint: mean survival time, dose: 100.0 mg/kg/injection, schedule: Q01DX001 (ip), vehicle: saline) was 100 % of control and the T/C (endpoint: mean survival time, dose: 200.0 mg/kg/injection, schedule: Q01DX001 (ip), vehicle: saline) was 102 % of control.

With `Cc1c(C)c2ccccc2[nH]c1=O` the T/C [3] was 99 % of control, the T/C [4] was 96 % of control and the T/C [5] was 100 % of control.
